Where a name gives a salt, the structure may show the parent alone.
How the values were obtained:
Format in all cases: in vivo
[1] = system: AVEFA (Avena fatua L., wild oat); experiment: Example III postemergence foliar-applied mixtures, row crop weeds (corn, soybean), greenhouse: AVEFA
Method: (§1) Seeds or nutlets of the desired test plant species were planted in a soil matrix prepared by mixing a loam or sandy loam soil (e.g., 43 percent silt, 19 percent clay, and 38 percent sand, with a pH of about 8.1 and an organic matter content of about 1.5 percent) and calcareous grit in an 80 to 20 ratio. The soil matrix was contained in plastic pots with a surface area of 84.6 square centimters (cm^2) and a volume of 560 cubic centimeters (cm^3). […] The plants were grown for 7-31 days (d) in a greenhouse with an approximate 15 hour (h) photoperiod which was maintained at about 23-29° C. during the day and 22-28° C. during the night. Nutrients (Peters Excel® 15-5-15 5-Ca 2-Mg) and water were added on a regular basis and supplemental lighting was provided with overhead metal halide 1000-Watt lamps as necessary. The plants were employed for testing when they reached the first, second, or third true leaf stage.
(§2) Treatments consisted of the acid or esters of 4-amino-3-chloro-5-fluoro-6-(4-chloro-2-fluoro-3-methoxy-phenyl)pyridine-2-carboxylic acid (Compound A), each formulated as an
(§3) SC (suspension concentrate), and various herbicidal components alone and in combination. Forms of compound A were applied on an acid equivalent basis.
(§4) Other herbicidal components were applied on an acid equivalent or active ingredient basis and included the 5-enolpyruvylshikimate-3-phosphate synthase (EPSPS)-inhibiting herbicide, glyphosate dimethylamine salt, formulated as Durango DMA® and the glutamine synthase (GS)-inhibiting herbicide, glufosinate ammonium, formulated as Ignite® 280.
(§5) For treatments comprised of formulated compounds, measured amounts of compounds were placed individually in 25 mL glass vials and diluted in a volume of 1.5% (v/v) Agri-dex® crop oil concentrate to obtain 6× stock solutions. […] Application solutions were prepared by adding an appropriate amount of each stock solution (typically 2 mL) and diluted to the appropriate final concentrations with the addition of an aqueous mixture of 1.5% (v/v) crop oil concentrate and water so that the final spray solutions contained 1.25% (v/v) crop oil concentrate.
(§6) All stock solutions and applications solutions were visually inspected for compound compatibility prior to application. Compound requirements are based upon a 12 mL application volume at a rate of 187 liters per hectare (L/ha). Formulated compounds were applied to the plant material with an overhead Mandel track sprayer equipped with 8002E nozzles calibrated to deliver 187 L/ha over an application area of 0.503 square meters (m^2) at a spray height of 18 to 20 inches (46 to 50 cm) above the average plant canopy height. Control plants were sprayed in the same manner with the solvent blank.
(§7) The treated plants and control plants were placed in a greenhouse as described above and watered by sub-irrigation to prevent wash-off of the test compounds. After approximately 2 weeks, the condition of the test plants as compared with that of the untreated plants was determined visually and scored on a scale of 0 to 100 percent where 0 corresponds to no injury or growth inhibition and 100 corresponds to complete kill.
(§8) The following equation was used to calculate the expected activity of mixtures containing two active ingredients, A and B: […]

[2] = system: ELEIN (Eleusine indica (L.) Gaertn., goosegrass); experiment: Example III postemergence foliar-applied mixtures, row crop weeds (corn, soybean), greenhouse: ELEIN
Method: as §1, §2, §3, §4, §5, §6, §7, §8

[3] = system: IPOHE (Ipomoea hederacea Jacq., morning glory, ivyleaf); experiment: Example IV postemergence foliar-applied mixtures, general weed control, greenhouse: IPOHE
Method: (§9) The treated plants and control plants were placed in a greenhouse as described above and watered by sub-irrigation to prevent wash-off of the test compounds. After approximately 3 weeks, the condition of the test plants as compared with that of the untreated plants was determined visually and scored on a scale of 0 to 100 percent where 0 corresponds to no injury or growth inhibition and 100 corresponds to complete kill.
(§10) Colby's equation was used to determine the herbicidal effects expected from the mixtures (Colby, S. R. 1967. Calculation of the synergistic and antagonistic response of herbicide combinations. Weeds 15:20-22.) .
The following equation was used to calculate the expected activity of mixtures containing two active ingredients, A and B:
A=observed efficacy of active ingredient A at the same concentration as used in the mixture.
B=observed efficacy of active ingredient B at the same concentration as used in the mixture.

[4] = system: CYPES (Cyperus esculentus L., yellow nutsedge); experiment: Example IV postemergence foliar-applied mixtures, general weed control, greenhouse: CYPES
Method: as §1, with “Sun Gro Metro-Mix® 360 planting mixture, which typically has” for “a soil matrix prepared by mixing a loam or sandy loam soil (e.g., 43 percent silt, 19 percent clay, and 38 percent sand, with”, “6.0 to 6.8” for “about 8.1”, “30 percent,” for “1.5 percent) and calcareous grit in an 80 to 20 ratio. The soil matrix was contained”, “square” for “square centimters (cm^2) and a volume of 560 cubic”, “(cm^2).” for “(cm^3).”
(§11) Treatments consisted of the acid or the benzyl ester of 4-amino-3-chloro-5-fluoro-6-(4-chloro-2-fluoro-3-methoxy-phenyl)pyridine-2-carboxylic acid (Compound A), each formulated as an SC, and various herbicidal components alone and in combination. Forms of compound A were applied on an acid equivalent basis.
as §4
(§12) For treatments comprised of formulated compounds, measured amounts of compounds were placed individually in 25 mL glass vials and diluted in a volume of 1.25% (v/v) Agri-dex crop oil concentrated to obtain 12× stock solutions. […] Application solutions were prepared by adding an appropriate amount of each stock solution (typically 1 mL) and diluted to the appropriate final concentrations with the addition of 10 mL of an aqueous mixture of 1.25% (v/v) Agri-dex crop oil concentrate so that the final spray solutions contained 1.25% (v/v) Agri-dex crop oil concentrate.
as §6, §9, §10

[5] = system: VIOTR (Viola tricolor L., wild violet); experiment: Example IV postemergence foliar-applied mixtures, general weed control, greenhouse: VIOTR; details: Compound A Benzyl Ester alone
Method: as §1, with “Sun Gro Metro-Mix® 360 planting mixture, which typically has” for “a soil matrix prepared by mixing a loam or sandy loam soil (e.g., 43 percent silt, 19 percent clay, and 38 percent sand, with”, “6.0 to 6.8” for “about 8.1”, “30 percent,” for “1.5 percent) and calcareous grit in an 80 to 20 ratio. The soil matrix was contained”, “square” for “square centimters (cm^2) and a volume of 560 cubic”, “(cm^2).” for “(cm^3).”
as §11, §4, §12
All stock solutions and applications solutions were visually inspected for compound compatibility prior to application. Compound requirements are based upon a 12 mL application volume at a rate of 187 liters per hectare (L/ha). […]
The treated plants and control plants were placed in a greenhouse as described above and watered by sub-irrigation to prevent wash-off of the test compounds. After approximately 3 weeks, the condition of the test plants as compared with that of the untreated plants was determined visually and scored on a scale of 0 to 100 percent where 0 corresponds to no injury or growth inhibition and 100 corresponds to complete kill. […]

[6] = system: SETFA (Setaria faberi Herrm., giant foxtail); experiment: Example IV postemergence foliar-applied mixtures, general weed control, greenhouse: SETFA
Method: as §1, with “Sun Gro Metro-Mix® 360 planting mixture, which typically has” for “a soil matrix prepared by mixing a loam or sandy loam soil (e.g., 43 percent silt, 19 percent clay, and 38 percent sand, with”, “6.0 to 6.8” for “about 8.1”, “30 percent,” for “1.5 percent) and calcareous grit in an 80 to 20 ratio. The soil matrix was contained”, “square” for “square centimters (cm^2) and a volume of 560 cubic”, “(cm^2).” for “(cm^3).”
as §11, §4, §12, §6, §9, §10

[7] = Compound A Acid alone, 7.5 gae/ha
[8] = Compound A Acid alone, 15 gae/ha
[9] = Compound A Benzyl Ester 2 gae/ha alone, 18 DAA
[10] = Compound A Benzyl Ester 4 gae/ha alone, 18 DAA
[11] = Compound A Benzyl Ester 8 gae/ha alone, 18 DAA
[12] = Compound A Benzyl Ester alone, 2 gae/ha
[13] = Glufosinate ammonium salt 450 gai/ha alone, 18 DAA
[14] = glufosinate ammonium alone, 28.25 gae/ha
[15] = glufosinate ammonium alone, 56.5 gae/ha

COc1c(Cl)ccc(-c2nc(C(=O)O)c(Cl)c(N)c2F)c1F [Compound A Acid, 4-amino-3-chloro-6-(4-chloro-2-fluoro-3-methoxyphenyl)-5-fluoropyridine-2-carboxylic acid]
Visual Weed Control (%) - 16 DAA AVEFA Obs ([1]; Compound A Acid alone, 3.75 gae/ha): 0% | Visual Weed Control (%) - 16 DAA AVEFA Obs [1, 7]: 0% | Visual Weed Control (%) - 16 DAA AVEFA Obs [1, 8]: 10% | Visual Weed Control (%) - 16 DAA ELEIN Obs [2, 7]: 10% | Visual Weed Control (%) - 16 DAA ELEIN Obs [2, 8]: 10%

COc1c(Cl)ccc(-c2nc(C(=O)OCc3ccccc3)c(Cl)c(N)c2F)c1F [Compound A Benzyl Ester]
Visual Weed Control (%) - 18 DAA IPOHE Obs ([3]; Compound A Benzyl Ester 2 gae/ha alone): 15% | Visual Weed Control (%) - 18 DAA IPOHE Obs ([3]; Compound A Benzyl Ester 4 gae/ha alone): 25% | Visual Weed Control (%) - 18 DAA IPOHE Obs ([3]; Compound A Benzyl Ester 8 gae/ha alone): 25% | Visual Weed Control (%) - 18 DAA IPOHE Obs ([3]; Compound A Benzyl Ester 16 gae/ha alone): 35% | Visual Weed Control (%) - 18 DAA IPOHE Obs ([3]; Compound A Benzyl Ester 32 gae/ha alone): 45% | Visual Weed Control (%) - 18 DAA CYPES Obs [4, 9]: 40% | Visual Weed Control (%) - 18 DAA CYPES Obs [4, 10]: 75% | Visual Weed Control (%) - 18 DAA CYPES Obs [4, 11]: 80% | Visual Weed Control (%) - 18 DAA CYPES Obs [4, 12]: 40% | Visual Weed Control (%) - 18 DAA VIOTR Obs ([5]; 2 gae/ha): 15% | Visual Weed Control (%) - 18 DAA VIOTR Obs ([5]; 4 gae/ha): 20% | VisualWeed Control (%) - 18 DAA SETFA Obs [6, 9]: 40% | VisualWeed Control (%) - 18 DAA SETFA Obs [6, 10]: 40% | VisualWeed Control (%) - 18 DAA SETFA Obs [6, 11]: 75% | VisualWeed Control (%) - 18 DAA SETFA Obs ([6]; Compound A Benzyl Ester 16 gae/ha alone, 18 DAA): 85% | VisualWeed Control (%) - 18 DAA SETFA Obs ([6]; Compound A Benzyl Ester 32 gae/ha alone, 18 DAA): 90% | VisualWeed Control (%) - 18 DAA SETFA Obs [6, 12]: 40% | VisualWeed Control (%) - 18 DAA SETFA Obs ([6]; Compound A Benzyl Ester alone, 4 gae/ha): 40%

CP(=O)(O)CCC(N)C(=O)O (centres unmarked) [Glufosinate ammonium salt, 2-amino-4-(hydroxymethylphosphinyl)butanoic acid monoammonium salt, reference compound]
Visual Weed Control (%) - 18 DAA IPOHE Obs ([3]; Glufosinate ammonium salt 112.5 gai/ha alone): 10% | Visual Weed Control (%) - 18 DAA IPOHE Obs ([3]; Glufosinate ammonium salt 225 gai/ha alone): 20% | Visual Weed Control (%) - 18 DAA IPOHE Obs ([3]; Glufosinate ammonium salt 450 gai/ha alone): 50% | Visual Weed Control (%) - 18 DAA CYPES Obs ([4]; Glufosinate ammonium salt 112.5 gai/ha alone, 18 DAA): 0% | Visual Weed Control (%) - 18 DAA CYPES Obs ([4]; Glufosinate ammonium salt 225 gai/ha alone, 18 DAA): 0% | Visual Weed Control (%) - 18 DAA CYPES Obs [4, 13]: 0% | Visual Weed Control (%) - 16 DAA AVEFA Obs [1, 14]: 0% | Visual Weed Control (%) - 16 DAA AVEFA Obs [1, 15]: 0% | Visual Weed Control (%) - 16 DAA ELEIN Obs [2, 14]: 0% | Visual Weed Control (%) - 16 DAA ELEIN Obs [2, 15]: 0% | Visual Weed Control (%) - 16 DAA ELEIN Obs ([2]; glufosinate ammonium alone, 113 gae/ha): 10% | VisualWeed Control (%) - 18 DAA SETFA Obs [6, 13]: 60%

— patent US20140031227A1, “HERBICIDAL COMPOSITIONS COMPRISING 4-AMINO-3-CHLORO-5-FLUORO-6-(4-CHLORO-2-FLUORO-3-METHOXYPHENYL) PYRIDINE-2-CARBOXYLIC ACID OR A DERIVATIVE THEREOF AND GLYPHOSATE OR GLUFOSINATE” (DOW AGROSCIENCES LLC, priority 2012, published 2014)
